Like-named read-outs stand apart in the source and are kept apart here. Each block holds one molecule with its values, some of them ahead of it. Square brackets hold non-standard residues; d marks the D form. Peptide text beside a SMILES is read from it. * marks the point of attachment. ξ: configuration not given here. Palmitoyl = CCCCCCCCCCCCCCCC(=O)*; ξF = NC(Cc1ccccc1)C(=O)O
How the values were obtained:
Assay type in all cases: cell-based
[1] = target: T1, CXCR4 (Homo sapiens, UniProt P61073); experiment: Chemotaxis assay using SUP B-15 cells; set-up: A similar procedure was followed for chemotaxis using SUP B-15 cells; endogenous in cells; host or cells: SUP B-15 cells; details: SUP-B15, Table 18, i1 loop, SUP B-15 cells, drug conc 1.0 uM
Source text: Chemotaxis assays were utilized to determine the effect of compound on the directed migration of cells in response to chemokine. Cells that express a receptor of interest were placed in the upper chamber of a Transwell chemotaxis plate (Corning) and allowed to migrate through a polycarbonate membrane to a lower chamber containing the appropriate receptor-specific ligand. To test for antagonist or potentiating activity, cells were mixed with the desired concentration of compound prior to addition to the upper chamber. Conversely, agonist activity was determined by adding compound in the bottom chamber only without endogenous chemokine. The effect of compound is quantified by several parameters, including the extent of maximum response, the shift of agonist dose-response curves, and the area under the curve.
To measure the CXCR4-dependent migration of cells, the appropriate concentration of CXCL12 (SDF1a) or test compound was diluted in phenol red-free RMPI-1640/20 mM HEPES/0.5% BSA buffer and placed in the bottom chamber of a transwell apparatus. CCRF-CEM cells, a human T-cell ALL line that endogenously expresses CXCR4, were washed twice in buffer and resuspended at 133,000 cells/ml. A 75 μl sample of this suspension is mixed with the test compound of interest and placed in the upper chamber of a 5-micron transwell apparatus.
To initiate cell migration, the assembled transwell plate was placed in a 37° C., […] incubator for a specified time interval, typically between 30 and 120 minutes. After incubation, the unit was disassembled and the lower chamber placed at −80° C. overnight to facilitate lysis of cells. To quantify migrated cells, plates were thawed at 37° C. in a humidified chamber, and then a sample volume was removed from each well and mixed with an equal volume of CyQuant (Invitrogen) working solution in opaque plates. The fluorescence intensity of each well represents the DNA content and is directly proportional to cell number. Each sample was typically run in duplicate or triplicate and each plate included two separate negative controls. The plate background control, which included no cells in the upper chamber, was subtracted from all values. The negative control had no agonist added in the lower chamber, and served to establish the baseline for random migration. A similar procedure was followed for chemotaxis using SUP B-15 cells.

[2] = target: T1, CXCR4; experiment: Chemotaxis assay, effect on SDF1-a (CXCL12) induced migration of CCRF-CEM cells; set-up: a human T-cell ALL line that endogenously expresses CXCR4; endogenous in cells; host or cells: CCRF-CEM (human T-cell ALL line); details: CCRF-CEM, Table 18, i1 loop, CEM cells; for activity at 0.03 µM: drug conc 0.03 uM; for activity at 0.1 µM: drug conc 0.1 uM; for activity at 0.3 µM: drug conc 0.3 uM; for activity at 1 µM: drug conc 1.0 uM; for activity at 3 µM: drug conc 3.0 uM
Description: To initiate cell migration, the assembled transwell plate was placed in a 37° C., 0.5% CO2 incubator for a specified time interval, typically between 30 and 120 minutes. After incubation, the unit was disassembled and the lower chamber placed at −80° C. overnight to facilitate lysis of cells. To quantify migrated cells, plates were thawed at 37° C. in a humidified chamber, and then a sample volume was removed from each well and mixed with an equal volume of CyQuant (Invitrogen) working solution in opaque plates. The fluorescence intensity of each well represents the DNA content and is directly proportional to cell number. […] The plate background control, which included no cells in the upper chamber, was subtracted from all values.

[3] = target: T1, CXCR4; experiment: Calcium flux assay in CCRF-CEM cells (SDF-1α activation of CXCR4; intrinsic agonist activity); set-up: a human T-cell ALL line that endogenously expresses CXCR4; endogenous in cells; host or cells: CCRF-CEM (human T-cell ALL line); details: SDF-1α activation of CXCR4, Calcium-4 dye, read-out: IC50 (nM), CXCR4 i1 loop compound Calcium Flux Data
Source text: Calcium Flux Assay is one of the most popular cell-based GPCR functional assays. It most often uses calcium sensing fluorescent dyes such as fura2 AM, fluo-4 and Calcium-4 to measure changes in intracellular calcium concentration. It is used mainly to detect GPCR signaling via Gaq subunit. Activation of these Gq-coupled GPCRs leads to activation of phospholipase C, which subsequently leads to increase in inositol phosphate production. IP3 receptors on endoplasmic reticulum sense the change then release calcium into cytoplasm. Intracellular calcium binding to the fluorescent dyes can be detected by instruments that quantify fluorescent intensities, such as FLIPR Tetra, Flexstation (MDS) and FDSS (Hamamatsu). In additional to assess Gq-couple receptor signaling, calcium flux assay can also be used to study Gs and Gi couple receptors by co-expressing CNG (cyclic nucleotide gated calcium channel) or chimeric G-proteins (Gqi5, Gsi5 for example). Activation of some Gi-coupled receptors can also be detected by calcium flux assay via Gβγmediated phospholipase C activation.
The calcium flux assay was used to assess SDF-1α activation of CXCR4 in CCRF-CEM cells (human T lymphoblasts from acute lymphoblastic leukemia). CCRF-CEM cells were seeded into 96-well black plates with clear bottom at 200K/well in RPMI 1640 media with 20 mM HEPES containing 0.2% BSA. After dye loading by incubating with Calcium-4 dye at 37° C. for 1 hour, cell plates were read at 37° C. using the Flexstation 3 workstation. The addition of test compounds or reference antagonists was accomplished either by manual pipetting or by liquid handling using the Flexstation. The latter allows the assessment of intrinsic agonist activity of the test compounds by measuring initial changes in fluorescent intensity. After incubation of 24 minutes at 37° C., SDF-1α was added and receptor activation was assessed by measuring changes in fluorescent intensity using the Flexstation.

T1 sequence (P61073 whole entry): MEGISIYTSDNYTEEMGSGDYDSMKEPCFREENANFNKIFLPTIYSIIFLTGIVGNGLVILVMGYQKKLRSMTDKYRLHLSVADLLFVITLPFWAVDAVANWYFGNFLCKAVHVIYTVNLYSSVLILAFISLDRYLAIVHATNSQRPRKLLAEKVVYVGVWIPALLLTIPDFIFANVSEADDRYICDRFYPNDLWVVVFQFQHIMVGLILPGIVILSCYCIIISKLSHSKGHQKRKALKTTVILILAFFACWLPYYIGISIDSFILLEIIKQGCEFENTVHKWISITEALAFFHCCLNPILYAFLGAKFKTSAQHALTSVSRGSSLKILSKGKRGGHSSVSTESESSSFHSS

activity at 1 µM ([1]; read-out: AUC (% of)): 70.8% | activity at 1 µM ([1]; read-out: Max (% of)): 55.8% | activity at 0.01 µM ([2]; drug conc 0.01 uM, read-out: AUC (% of)): 110% | activity at 0.03 µM ([2]; read-out: AUC (% of)): 110% | activity at 0.03 µM ([2]; read-out: Max (% of)): 92.7% | activity at 0.1 µM ([2]; read-out: AUC (% of)): 108% | activity at 0.1 µM ([2]; read-out: Max (% of)): 93.6% | activity at 0.3 µM ([2]; read-out: AUC (% of)): 97.9% | activity at 0.3 µM ([2]; read-out: Max (% of)): 84.5% | activity at 1 µM ([2]; read-out: Max (% of)): 78.9% | activity at 3 µM ([2]; read-out: AUC (% of)): 79.4% | activity at 3 µM ([2]; read-out: Max (% of)): 76.3%
SMILES: CCCCCCCCCCCCCCCC(=O)N[C@@H](CCCCN)C(=O)N[C@@H](CCCCN)C(=O)N[C@@H](CC(C)C)C(=O)N[C@@H](CCCNC(=N)N)C(=O)N[C@@H](CO)C(=O)N[C@@H](CCSC)C(=O)N[C@H](C(=O)N[C@@H](CC(=O)O)C(=O)N[C@@H](CCCCN)C(=O)N[C@@H](Cc1ccc(O)cc1)C(=O)N[C@@H](CCCNC(=N)N)C(=O)N[C@@H](CC(C)C)C(=O)N[C@@H](Cc1cnc[nH]1)C(N)=O)[C@@H](C)O [Compound 43] (Palmitoyl-KKLRSMTDKYRLH-NH2)

activity at 1 µM ([1]; read-out: AUC (% of)): 87.2% | activity at 1 µM ([1]; read-out: Max (% of)): 82.9% | activity at 1 µM ([2]; read-out: AUC (% of)): 69.7% | activity at 1 µM ([2]; read-out: Max (% of)): 116%
SMILES: CCCCCCCCCCCCCCCC(=O)N[C@@H](CCCCN)C(=O)N[C@@H](CCCCN)C(=O)N[C@@H](CC(C)C)C(=O)N[C@@H](CCCNC(=N)N)C(=O)N[C@@H](CO)C(=O)N[C@@H](CCSC)C(=O)N[C@H](C(=O)N[C@@H](CC(=O)O)C(=O)N[C@@H](CCCCN)C(=O)N[C@@H](Cc1ccc(O)cc1)C(N)=O)[C@@H](C)O [Compound 46] (Palmitoyl-KKLRSMTDKY-NH2)

IC50 [3]: > 10000 nM
SMILES: CCCCCCCCCCCCCCCC(=O)N[C@@H](CCSC)C(=O)NCC(=O)N[C@@H](Cc1ccc(O)cc1)C(=O)N[C@@H](CCC(N)=O)C(=O)N[C@H](CCCCN)C(=O)N[C@@H](CCCCN)C(=O)N[C@@H](CC(C)C)C(=O)N[C@@H](CCCNC(=N)N)C(=O)N[C@@H](CO)C(=O)N[C@@H](CCSC)C(=O)N[C@H](C(=O)N[C@@H](CC(=O)O)C(=O)N[C@@H](CCCCN)C(=O)N[C@@H](C)C(=O)N[C@@H](CCCNC(=N)N)C(=O)N[C@@H](CC(C)C)C(N)=O)[C@@H](C)O [Compound 151] (Palmitoyl-MGYQ[dK]KLRSMTDKARL-NH2)

IC50 [3]: > 10000 nM
SMILES: CCCCCCCCCCCCCCCC(=O)N[C@@H](CCSC)C(=O)NCC(=O)N[C@@H](Cc1ccc(O)cc1)C(=O)N[C@@H](CCC(N)=O)C(=O)N[C@H](CCCCN)C(=O)N[C@@H](CCCCN)C(=O)N[C@@H](CC(C)C)C(=O)N[C@@H](CCCNC(=N)N)C(=O)N[C@@H](CO)C(=O)N[C@@H](CCSC)C(=O)N[C@H](C(=O)N[C@@H](CC(=O)O)C(=O)N[C@@H](CCCCN)C(=O)N[C@@H](Cc1ccc(O)cc1)C(=O)N[C@@H](C)C(=O)N[C@@H](CC(C)C)C(N)=O)[C@@H](C)O [Compound 152] (Palmitoyl-MGYQ[dK]KLRSMTDKYAL-NH2)

IC50 [3]: > 10000 nM
SMILES: CCCCCCCCCCCCCCCC(=O)N[C@@H](CCSC)C(=O)NCC(=O)N[C@@H](Cc1ccc(O)cc1)C(=O)N[C@@H](CCC(N)=O)C(=O)N[C@H](CCCCN)C(=O)N[C@@H](CCCCN)C(=O)N[C@@H](CC(C)C)C(=O)N[C@@H](CCCNC(=N)N)C(=O)N[C@@H](CO)C(=O)N[C@@H](CCSC)C(=O)N[C@H](C(=O)N[C@@H](CC(=O)O)C(=O)N[C@@H](CCCCN)C(=O)NC(Cc1ccccc1)C(=O)N[C@@H](CCCNC(=N)N)C(=O)N[C@@H](C)C(N)=O)[C@@H](C)O (some centres unmarked) [Compound 153] (Palmitoyl-MGYQ[dK]KLRSMTDK[ξF]RA-NH2)

IC50 [3]: > 10000 nM
SMILES: CCCCCCCCCCCCCCCC(=O)N[C@@H](CCSC)C(=O)NCC(=O)N[C@@H](Cc1ccc(O)cc1)C(=O)N[C@@H](CCC(N)=O)C(=O)N[C@@H](CCCCN)C(=O)N[C@@H](CCCCN)C(=O)N[C@@H](CC(C)C)C(=O)N[C@@H](CCCNC(=N)N)C(=O)N[C@@H](CO)C(=O)N[C@@H](CCSC)C(=O)N[C@H](C(=O)N[C@@H](CC(=O)O)C(=O)N[C@@H](CCCCN)C(=O)N[C@@H](Cc1ccc(O)cc1)C(=O)N[C@@H](CCCNC(=N)N)C(=O)N[C@H](CC(C)C)C(N)=O)[C@@H](C)O [Compound 159] (Palmitoyl-MGYQKKLRSMTDKYR[dL]-NH2)

IC50 [3]: > 10000 nM
SMILES: CCCCCCCCCCCCCCCC(=O)N[C@@H](CCSC)C(=O)NCC(=O)N[C@@H](Cc1ccc(O)cc1)C(=O)N[C@@H](CCC(N)=O)C(=O)N[C@@H](CCCCN)C(=O)N[C@@H](CCCCN)C(=O)N[C@@H](CC(C)C)C(=O)N[C@@H](CCCNC(=N)N)C(=O)N[C@@H](CO)C(=O)N[C@@H](CCSC)C(=O)N[C@H](C(=O)N[C@@H](CC(=O)O)C(=O)N[C@@H](CCCCN)C(=O)N[C@H](Cc1ccc(O)cc1)C(=O)N[C@@H](CCCNC(=N)N)C(=O)N[C@@H](CC(C)C)C(N)=O)[C@@H](C)O [Compound 161] (Palmitoyl-MGYQKKLRSMTDK[dY]RL-NH2)

IC50 [3]: 72 nM
SMILES: CCCCCCCCCCCCCCCC(=O)N[C@@H](CCSC)C(=O)NCC(=O)N[C@@H](Cc1ccc(O)cc1)C(=O)N[C@@H](CCC(N)=O)C(=O)N[C@@H](CCCCN)C(=O)N[C@@H](CCCCN)C(=O)N[C@H](CC(C)C)C(=O)N[C@@H](CCCNC(=N)N)C(=O)N[C@@H](CO)C(=O)N[C@@H](CCSC)C(=O)N[C@H](C(=O)N[C@@H](CC(=O)O)C(=O)N[C@@H](CCCCN)C(=O)N[C@@H](Cc1ccc(O)cc1)C(=O)N[C@@H](CCCNC(=N)N)C(=O)N[C@@H](CC(C)C)C(N)=O)[C@@H](C)O [Compound 170] (Palmitoyl-MGYQKK[dL]RSMTDKYRL-NH2)

IC50 [3]: 72 nM
SMILES: CCCCCCCCCCCCCCCC(=O)N[C@@H](CCSC)C(=O)NCC(=O)N[C@@H](Cc1ccc(O)cc1)C(=O)N[C@@H](CCC(N)=O)C(=O)N[C@@H](CCCCN)C(=O)N[C@@H](CCCCN)C(=O)N[C@@H](CC(C)C)C(=O)N[C@H](CCCNC(=N)N)C(=O)N[C@@H](CO)C(=O)N[C@@H](CCSC)C(=O)N[C@H](C(=O)N[C@@H](CC(=O)O)C(=O)N[C@@H](CCCCN)C(=O)N[C@@H](Cc1ccc(O)cc1)C(=O)N[C@@H](CCCNC(=N)N)C(=O)N[C@@H](CC(C)C)C(N)=O)[C@@H](C)O [Compound 171] (Palmitoyl-MGYQKKL[dR]SMTDKYRL-NH2)
